Data set [1] in a line: Cmax in CD1 mouse at 10 mg/kg, po. It counts as ADME, organism-based. Set-up: dose 10 mg/kg, route oral. Conditions: in vivo.
A short description of data set [2]: AUC in CD1 mouse at 10 mg/kg, po. It counts as ADME, organism-based. The arrangement: dose 10 mg/kg, route oral. Conditions: plasma.
The nature of data set [3]: Terminal half life in CD1 mouse at 5 mg/kg, iv. It counts as ADME, organism-based. The arrangement: dose 5 mg/kg, route intravenous. The settings on record: in vivo, read-out: beta t1/2 (converted).
A short description of data set [4]: Tmax in CD1 mouse at 10 mg/kg, po. The format is ADME, organism-based. The arrangement: dose 10 mg/kg, route oral. The settings on record: in vivo.
Data set [5] in a line: AUC in CD1 mouse at 5 mg/kg, iv. The arrangement: dose 5 mg/kg, route intravenous. Conditions: plasma. It counts as ADME, organism-based.
Data set [6] has as its system PBMC. The experiment in a line: Antiinflammatory activity in human PBMCs assessed as inhibition of LPS-induced TNFalpha release incubated for 15 mins prior to LPS challenge measured after 24 hrs by HTRF assay. It counts as functional, cell-based. On the technique in general: Time-resolved FRET reads energy transfer from a long-lived donor to a nearby acceptor.
Data set [7] can be described thus: Oral bioavailability in CD1 mouse at 10 mg/kg. The format is ADME, organism-based. The settings on record: in vivo.
Data set [8] has as its system PBMC. Nature of the data set: Antiinflammatory activity in human PBMCs assessed as inhibition of LPS-induced TNFalpha release at 100 uM incubated for 15 mins prior to LPS challenge measured after 24 hrs by HTRF assay relative to control. It counts as functional.
In data set [9] the test system is PBMC. Nature of the data set: Antiinflammatory activity in human PBMCs assessed as inhibition of LPS-induced IL6 release at 100 uM incubated for 15 mins prior to LPS challenge measured after 24 hrs by HTRF assay relative to control. It counts as functional.
The nature of data set [10]: Terminal half life in CD1 mouse at 10 mg/kg, po. The format is ADME, organism-based. The arrangement: dose 10 mg/kg, route oral. Conditions: in vivo, read-out: beta t1/2 (converted).
The test system of data set [11] is PBMC. Nature of the data set: Antiinflammatory activity in human PBMCs assessed as inhibition of LPS-induced IL1-beta release incubated for 15 mins prior to LPS challenge measured after 24 hrs by HTRF assay. It counts as functional, cell-based.
A short description of data set [12]: Volume of distribution at steady state in CD1 mouse at 5 mg/kg, iv. It counts as ADME, organism-based. Set-up: dose 5 mg/kg, route intravenous. The settings on record: in vivo, read-out: Vdss.
Data set [13] can be described thus: Clearance in CD1 mouse at 5 mg/kg, iv. It counts as ADME, organism-based. The arrangement: dose 5 mg/kg, route intravenous. The settings on record: in vivo.
In data set [14] the test system is PBMC. The experiment in a line: Antiinflammatory activity in human PBMCs assessed as inhibition of LPS-induced IL1-beta release at 100 uM incubated for 15 mins prior to LPS challenge measured after 24 hrs by HTRF assay relative to control. It counts as functional.
In data set [15] the test system is PBMC. The experiment in a line: Antiinflammatory activity in human PBMCs assessed as inhibition of LPS-induced IL6 release incubated for 15 mins prior to LPS challenge measured after 24 hrs by HTRF assay. It counts as functional, cell-based.
The subject of data set [16] is PBMC. The experiment in a line: Antiinflammatory activity in human PBMCs assessed as inhibition of LPS-induced IL6 release at 10 uM incubated for 15 mins prior to LPS challenge measured after 24 hrs by HTRF assay relative to control. It counts as functional.

pIC50: −log10 of the molar value.

On to `Cl.NCc1ccc(Oc2ccc3c(c2)B(O)OC3)c(F)c1`, for which the highest level in data set [1] (Cmax) was 142 ng/mL. The figures for the AUC in data set [2] and in [5] were 533 ng·h/mL and 1740 ng·h/mL, respectively. Besides, the half-life was 39 min in data set [3] and 146 min in data set [10]. Also, the Tmax (in general, the time at which the peak concentration occurs) in data set [4] turned out to be 15 min. For the same compound, the pIC50 (in general, the IC50 on a negative log10 scale, so that one unit is a factor of ten) in [6] is 7.39; in data set [11], 7.37; in data set [15], 7.48. Further, in data set [7], the bioavailability (usually the share of a dose that reaches the circulation, judged against a reference dose that is usually intravenous) was found to be 15%. Also, the inhibition at 100 µM in data set [8], in data set [9] and in data set [14] was 80% in each case. The Vd in data set [12] came to 2.14 L/kg. For the same compound, the clearance (commonly a measure of how efficiently the substance is removed, as volume per time) in data set [13] was 38 mL/min/kg.
For `OB1OCc2ccc(Oc3cccc(CN4CCOCC4)c3)cc21`, the pIC50 was 5.23 in [6], 5.36 in data set [11] and less than 5.00 in data set [15]. For the same compound, the inhibition – broadly, the relative decrease from the control value, in per cent – at 100 µM was 80% in data set [8], less than 40% in [9] and 40% in [14].
Consider `C[S+]([O-])c1ccc(-c2nc(-c3ccc(F)cc3)c(-c3ccncc3)[nH]2)cc1` (stereo not drawn) [SB-203580], for which the pIC50 in [6] is 6.00; in data set [11], 6.47; in data set [15], less than 5.00. Also, the inhibition at 100 µM in [8] is 80%; in [9], less than 40%; in data set [14] it was 80%.
On to `CN1CCN(Cc2cccc(Oc3ccc4c(c3)B(O)OC4)c2)CC1`, for which the results for the negative logarithm of the IC50 (pIC50) in data set [6], in data set [11] and in data set [15] were less than 5.00, 5.15 and less than 5.00, respectively. Moreover, the inhibition at 100 µM is less than 40% in [8], less than 40% in [9] and 40% in [14].
With `Nc1cccc(Oc2ccc3c(c2)B(O)OC3)c1`, the pIC50 in data set [6], in data set [11] and in data set [15] was less than 5.00 throughout. In addition, the inhibition at 100 µM in data set [9] and in [14] was less than 40% in each case.
Regarding `C[C@H]1C[C@H]2[C@@H]3CCC4=CC(=O)C=C[C@]4(C)[C@@]3(F)[C@@H](O)C[C@]2(C)[C@@]1(O)C(=O)CCl` [CLOBETASOL], the results for the pIC50 in [6], in data set [11] and in data set [15] were 8.15, 5.36 and 5.38, respectively. The inhibition at 100 µM in data set [8], in data set [9] and in data set [14] was 80% throughout.
With `C[C@@H]1C[C@H]2[C@@H]3CCC4=CC(=O)C=C[C@]4(C)[C@@]3(F)[C@@H](O)C[C@]2(C)[C@@]1(O)C(=O)CO` [DEXAMETHASONE], the inhibition at 10 µM in data set [16] was found to be 43%. Also, the pIC50 in data set [6] was 7.77; in data set [11], 8.02. Further, the inhibition at 100 µM in [8] and in [14] was 80% in each case.
With `Cl.NCc1ccc(Oc2ccc3c(c2)B(O)OC3)c(Cl)c1`, the Cmax (usually the maximum level reached in the sampled fluid or tissue) in data set [1] stood at 1450 ng/mL. Moreover, the values for the AUC in data set [2] and in data set [5] were 2660 ng·h/mL and 2260 ng·h/mL, respectively. Moreover, the figures for the half-life in data set [3] and in data set [10] were 83.4 min and 169 min, respectively. Moreover, the Tmax in data set [4] was 15 min. This compound also showed a bioavailability in [7] of 67%. For the same compound, in data set [12], the Vd is 2.87 L/kg. Besides, in data set [13], the clearance was 36.8 mL/min/kg.

(Values after ChEMBL document CHEMBL2331157, “Structure-activity relationships of 6-(aminomethylphenoxy)-benzoxaborole derivatives as anti-inflammatory agent” (Bioorg Med Chem Lett, 2013).)
